# Reference: ChEMBL document CHEMBL3885861, “Open TG-GATES”
# Species: Rattus norvegicus
# Experiment: Open TG-GATES - Regimen: Single
# Format: toxicity, organism-based, Sprague-Dawley
# Set-up: regimen Single, gender Male, age 6 weeks
# Settings: in vivo, po, 30 mg/kg, route gavage, dose level Low; for APTT / Bas / Eos / Fbg / Hb / Ht / Lym / MCH / MCHC / MCV / Mono / Neu / PT / Plat / RBC / Ret / WBC: tissue Blood; for KIDNEY_L / KIDNEY_R / KIDNEY_TOTAL: tissue Kidney; for LIVER: tissue Liver; for A/G / ALP / ALT / AST / BUN / CRE / Ca / Cl / DBIL / GLC / IP / K / LDH / Na / PL / RALB / TBIL / TC / TG / TP / gamma-GTP: tissue Plasma
compound,measurement,setting,value
Brc1ccccc1 [BROMOBENZENE],TERMINAL_BW,3 h,190.8 g
same,APTT,3 h,14.7 s
same,Bas,3 h,0%
same,Eos,3 h,0.8%
same,Fbg,3 h,276.2 mg/dL
same,Hb,3 h,12.9 g/dL
same,Ht,3 h,38.6%
same,Lym,3 h,77%
same,MCH,3 h,21.7 pg
same,MCHC,3 h,33.6%
same,MCV,3 h,64.5 fL
same,Mono,3 h,3%
same,Neu,3 h,18.4%
same,PT,3 h,12.3 s
same,Plat,3 h,116 x10_4/uL
same,RBC,3 h,597.6 x10_4/ul
same,Ret,3 h,9.5%
same,WBC,3 h,95.3 x10_2/uL
same,KIDNEY_L,3 h,0.8 g
same,KIDNEY_R,3 h,0.8 g
same,KIDNEY_TOTAL,3 h,1.6 g
same,LIVER,3 h,7.9 g
same,A/G,3 h,0.9
same,ALP,3 h,1807.2 IU/L
same,ALT,3 h,47.6 IU/L
same,AST,3 h,80 IU/L
same,BUN,3 h,11 mg/dL
same,CRE,3 h,0.2 mg/dL
same,Ca,3 h,11.4 mg/dL
same,Cl,3 h,106.2 meq/L
same,DBIL,3 h,0.024 mg/dL
same,GLC,3 h,182 mg/dL
same,IP,3 h,9.4 mg/dL
same,K,3 h,4 meq/L
same,LDH,3 h,75.6 IU/L
same,Na,3 h,141.6 meq/L
same,PL,3 h,174.2 mg/dL
same,RALB,3 h,2.6 g/dL
same,TBIL,3 h,0.056 mg/dL
same,TC,3 h,93.6 mg/dL
same,TG,3 h,80.6 mg/dL
same,TP,3 h,5.7 g/dL
same,gamma-GTP,3 h,1.2 IU/L
same,TERMINAL_BW,6 h,192.5 g
same,APTT,6 h,15.9 s
same,Bas,6 h,0%
same,Eos,6 h,1%
same,Fbg,6 h,250 mg/dL
same,Hb,6 h,12.8 g/dL
same,Ht,6 h,38.3%
same,Lym,6 h,78.6%
same,MCH,6 h,21.7 pg
same,MCHC,6 h,33.3%
same,MCV,6 h,65 fL
same,Mono,6 h,3.4%
same,Neu,6 h,16.6%
same,PT,6 h,12.6 s
same,Plat,6 h,110.6 x10_4/uL
same,RBC,6 h,590.4 x10_4/ul
same,Ret,6 h,9.4%
same,WBC,6 h,105.9 x10_2/uL
same,KIDNEY_L,6 h,0.8 g
same,KIDNEY_R,6 h,0.8 g
same,KIDNEY_TOTAL,6 h,1.6 g
same,LIVER,6 h,7.4 g
same,A/G,6 h,0.9
same,ALP,6 h,1769.6 IU/L
same,ALT,6 h,41 IU/L
same,AST,6 h,75.8 IU/L
same,BUN,6 h,10.6 mg/dL
same,CRE,6 h,0.2 mg/dL
same,Ca,6 h,11.1 mg/dL
same,Cl,6 h,107.2 meq/L
same,DBIL,6 h,0.018 mg/dL
same,GLC,6 h,180.8 mg/dL
same,IP,6 h,10.3 mg/dL
same,K,6 h,3.9 meq/L
same,LDH,6 h,71.2 IU/L
same,Na,6 h,141.8 meq/L
same,PL,6 h,139.2 mg/dL
same,RALB,6 h,2.5 g/dL
same,TBIL,6 h,0.058 mg/dL
same,TC,6 h,74.6 mg/dL
same,TG,6 h,53 mg/dL
same,TP,6 h,5.3 g/dL
same,gamma-GTP,6 h,1.4 IU/L
same,TERMINAL_BW,9 h,193.2 g
same,APTT,9 h,15.6 s
same,Bas,9 h,0%
same,Eos,9 h,1%
same,Fbg,9 h,262.2 mg/dL
same,Hb,9 h,13.3 g/dL
same,Ht,9 h,39.4%
same,Lym,9 h,70.8%
same,MCH,9 h,21.5 pg
same,MCHC,9 h,33.7%
same,MCV,9 h,64 fL
same,Mono,9 h,3.2%
same,Neu,9 h,24.6%
same,PT,9 h,12.7 s
same,Plat,9 h,118.3 x10_4/uL
same,RBC,9 h,617.2 x10_4/ul
same,Ret,9 h,9%
same,WBC,9 h,92.1 x10_2/uL
same,KIDNEY_L,9 h,0.8 g
same,KIDNEY_R,9 h,0.8 g
same,KIDNEY_TOTAL,9 h,1.6 g
same,LIVER,9 h,7 g
same,A/G,9 h,0.9
same,ALP,9 h,1907.6 IU/L
same,ALT,9 h,41.2 IU/L
same,AST,9 h,73.4 IU/L
same,BUN,9 h,10.2 mg/dL
same,CRE,9 h,0.1 mg/dL
same,Ca,9 h,10.7 mg/dL
same,Cl,9 h,106.2 meq/L
same,DBIL,9 h,0.016 mg/dL
same,GLC,9 h,189.6 mg/dL
same,IP,9 h,11.5 mg/dL
same,K,9 h,3.9 meq/L
same,LDH,9 h,72.8 IU/L
same,Na,9 h,142.2 meq/L
same,PL,9 h,136.8 mg/dL
same,RALB,9 h,2.5 g/dL
same,TBIL,9 h,0.058 mg/dL
same,TC,9 h,79.6 mg/dL
same,TG,9 h,41.6 mg/dL
same,TP,9 h,5.3 g/dL
same,gamma-GTP,9 h,1.6 IU/L
same,TERMINAL_BW,24 h,199 g
same,APTT,24 h,15.2 s
same,Bas,24 h,0%
same,Eos,24 h,1.2%
same,Fbg,24 h,248.6 mg/dL
same,Hb,24 h,12.7 g/dL
same,Ht,24 h,37.2%
same,Lym,24 h,71.6%
same,MCH,24 h,21.4 pg
same,MCHC,24 h,34%
same,MCV,24 h,63.1 fL
same,Mono,24 h,3.4%
same,Neu,24 h,23.6%
same,PT,24 h,12.3 s
same,Plat,24 h,117.9 x10_4/uL
same,RBC,24 h,589.2 x10_4/ul
same,Ret,24 h,8.2%
same,WBC,24 h,96.4 x10_2/uL
same,KIDNEY_L,24 h,0.8 g
same,KIDNEY_R,24 h,0.8 g
same,KIDNEY_TOTAL,24 h,1.7 g
same,LIVER,24 h,9.2 g
same,A/G,24 h,0.9
same,ALP,24 h,1811.4 IU/L
same,ALT,24 h,52.8 IU/L
same,AST,24 h,78.8 IU/L
same,BUN,24 h,15.4 mg/dL
same,CRE,24 h,0.2 mg/dL
same,Ca,24 h,10.4 mg/dL
same,Cl,24 h,106.2 meq/L
same,DBIL,24 h,0.012 mg/dL
same,GLC,24 h,196.8 mg/dL
same,IP,24 h,8.1 mg/dL
same,K,24 h,4.2 meq/L
same,LDH,24 h,112.6 IU/L
same,Na,24 h,141.6 meq/L
same,PL,24 h,137.4 mg/dL
same,RALB,24 h,2.5 g/dL
same,TBIL,24 h,0.05 mg/dL
same,TC,24 h,71.8 mg/dL
same,TG,24 h,79.4 mg/dL
same,TP,24 h,5.4 g/dL
same,gamma-GTP,24 h,0.8 IU/L
